These results are taken from US7049331B2, “1,2,4-thiadiazole derivatives as melanocortin receptor modulators” (Ortho-McNeil Pharmaceutical, Inc., priority 2001, dated 2006).

Each structure is given as a SMILES string. Read-outs that look alike come from different tables or passages of the source.

One assay concerns Food-Deprived Rats. Description: Rodent Feeding: Food Intake in Food-Deprived Rats (MC-4). It counts as in vivo, rat. To be noted: Rattus norvegicus. The text has this:
Rodent Feeding: Food Intake in Food-Deprived Rats (MC-4)
Male Long-Evans rats (180–200 grams) were housed individually and maintained on a once-a-day feeding schedule (i.e.10 a.m. until 4 p.m.) for five days following quarantine to allow the animals to acclimate to feeding on powdered chow (#5002 PMI Certified Rodent Meal) during the allotted time. The chow was made available in an open jar, anchored in the cage by a wire, with a metal follower covering the food to minimize spillage. Water was available ad-libitum.
Animals were fasted for 18 hours prior to testing. At the end of the fasting period, animals were administered either a test compound or vehicle. Vehicle and test compound were administered either orally (5 mL/kg) 60 minutes prior to the experiment, subcutaneously (1 mL/kg) 30 minutes prior to the experiment, or intraperitoneally (1 mL/kg) 30 minutes prior to the experiment. Test compounds were administered orally as a suspension in aqueous 0.5% methylcellulose-0.4% Tween 80, or intraperitoneally as a solution or suspension in PEG 200; compound concentrations typically ranged from 1 mg/kg to 100 mg/kg, preferably from 10–30 mg/kg. Food intake was measured at 2, 4, and 6 hours after administration by weighing the special jar containing the food before the experiment and at the specified times. Upon completion of the experiment, all animals were given a one-week washout period before re-testing.
Following the procedure described above, select compounds of the present invention were tested to measure the effect on food intake in fasted rats, as listed in Table 5 and 6.

In a further assay the test system is Cortical Cells. Nature of the assay: Neurite Cell Outgrowth Assay, cortical cells. To be noted: Rattus norvegicus; 50 nM; percent change over the vehicle response; NA = no change/not active. It counts as cell-based. A digest of the protocol:
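Rat E18 hippocampal or cortical neurons plated at 30,000 cells/well, treated 24 h after plating with compound at 50 nM, refreshed on day 3. At one week, fixed and MAP-2 immunostained with FITC secondary, read by fluorescence; outgrowth given as percent change versus vehicle.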

In assay [1] the test system is Male Long-Evans rats, facial nerve compression. Nature of the assay: In vivo Facial Nerve Compression Model. Set-up: species or system rat. To be noted: for Percent Recovery of whisker movement D9 / Percent Recovery of whisker movement D10 / Percent Recovery of whisker movement D11 / Percent Recovery of whisker movement D12 / Percent Recovery of whisker movement D13 / Percent Recovery of whisker movement D14: test compounds p.o. 20 mg/kg bid, αMSH s.c. 70 ug/each 48 hr; for Percent Recovery of whisker movement D9: % of sham-operated side; for recovery time to restore whisker muscle movement: lesioned rats vs vehicle controls (p<0.05), p.o. 20 mg/kg bid. The source says: The ability of test compound to provide neuro-protective or neuro-regenerative effects was investigated in a facial nerve compression model. Facial nerve motor axons arise exclusively from neurons within the pons in a well-defined nucleus. Facial nerve compression results in retrograde reactions proximal to the lesion site and Wallerian degeneration at its distal part, which causes diminished whisker movement on the lesioned side.
Male Long-Evans rats (150–180 g) were anesthetized with 3–5% isoflorane for induction and 2% for maintenance during the surgical procedures. The right facial nerve was exposed and compressed with forceps for 30 sec at its exit from the stylomastoid foramen. The left facial nerve was sham-operated and served as an internal control. […] The following morphological abnormalities associated with the functional deficit were observed:
After recovery from anesthesia, the rats were randomly divided into groups for dosing with vehicle, αMSH or test compound, with 6 animals per group. αMSH (s.c., 70 ug/each 48 hr) was used as a positive control. Test compounds were dosed p.o. at 20 mg/kg bid for 14 days. Restoration of whisker movement was monitored daily after the operation using two criteria:
(1) frequency of whisker movement on the lesioned side relative to the opposite side (sham-operated) which served as the baseline control
(2) semi-quantitative measurements (0 to 4+) on strength of the whisker muscles, characterized based on observation of the percentage of moved whiskers, muscle tone of whisker muscles, and the position of the nose. For all observations, the experimental design was blind to the behavioral observer.
The recovery rate of the whisker movement was expressed as percentage of its own internal control (sham-operated), as listed in Table 8.

Where [2] appears, read: ip, 2 h, ip, read-out: Change in Food Intake 0–2 hrs (%).
Setting [3] is: ip, 6 h, ip, read-out: Change in Food Intake 2–6 hrs (%).
The mark [4] stands for this setting: po, 2 h, po, read-out: Change in Food Intake 0–2 hrs (%).
[5] abbreviates: po, 6 h, po, read-out: Change in Food Intake 2–6 hrs (%).

As to `COc1ccccc1-[n+]1sc(Nc2ccc(C)cc2)nc1-c1ccccc1.[Br-]` [Compound 31, 2-(2-methoxyphenyl)-3-phenyl-5-p-tolylamino-[1,2,4]thiadiazol-2-ium], in the assay with Food-Deprived Rats (setting [2]), the change in vivo at 1 mg/kg was -20.6% and the change in vivo at 3 mg/kg was -37.8%. Besides, in the assay with Food-Deprived Rats (setting [3]), the change in vivo at 1 mg/kg was -71.2% and the change in vivo at 3 mg/kg was -50%. Further, in the assay on Food-Deprived Rats (setting [4]), the change in vivo at 1 mg/kg was 1.2%, the change in vivo at 3 mg/kg is -9%, the change in vivo at 10 mg/kg is -10.1% and the change in vivo at 30 mg/kg was -23.6%. Further, in the assay on Food-Deprived Rats (setting [5]), the change in vivo at 1 mg/kg was 19.5%, the change in vivo at 3 mg/kg was 52.1%, the change in vivo at 10 mg/kg was 39.7% and the change in vivo at 30 mg/kg is 31.5%. Also, in the assay on Cortical Cells, the activation at 0.05 µM turned out to be 16%. In addition, in assay [1], the “Percent Recovery of whisker movement D9” value stood at 0%, the “Percent Recovery of whisker movement D10” value turned out to be 3.5%, the “Percent Recovery of whisker movement D11” value worked out at 67.8% and the “Percent Recovery of whisker movement D12” value came out at 98.5%. Moreover, in assay [1], the “Percent Recovery of whisker movement D13” value is recorded as 100%, the “Percent Recovery of whisker movement D14” value is given as 100% and the “recovery time to restore whisker muscle movement” value is reported as “accelerated the recovery time”.

On to `c1ccc(CNc2nc(-c3ccccc3)[n+](-c3ccccc3)s2)cc1` [Compound 84], for which the change in vivo at 30 mg/kg in the assay on Food-Deprived Rats (setting [4]) is -7%. In addition, the change in vivo at 30 mg/kg in the assay on Food-Deprived Rats (setting [5]) turned out to be 32%. In the assay on Cortical Cells, this compound came in with an activation at 0.05 µM of 17%. Besides, in assay [1], the “Percent Recovery of whisker movement D9” value is 0%, the “Percent Recovery of whisker movement D10” value is 4.8%, the “Percent Recovery of whisker movement D11” value is listed as 35.1% and the “Percent Recovery of whisker movement D12” value amounted to 90.0%. Also, in assay [1], the “Percent Recovery of whisker movement D13” value is 98.3%, the “Percent Recovery of whisker movement D14” value was 100% and the “recovery time to restore whisker muscle movement” value is on record as “accelerated the recovery time”.
